Experimental data taken from US20260176289A1, “SMALL MOLECULE INHIBITORS OF KRAS PROTEINS” (Merck Sharp & Dohme LLC, priority 2022, published 2026).
Like-named read-outs stand apart in the source and are kept apart here.

Tests used:
KRAS-WT = KRAS-WT (Homo sapiens, UniProt P01116); test: SOS-catalyzed nucleotide exchange assay (Procedure A, TR-FRET), KRAS-WT; type: biochemical
Excerpt: (§1) Procedure for SOS-Catalyzed Nucleotide Exchange Assay for KRAS-WT, G12C/D/V, G13D, HRAS, and NRAS (Procedure A)
(§2) Recombinant KRAS-G12C protein used in this assay has an additional triple mutation (C51S/C80L/C118S). Whereas KRAS-WT, G12D/V, G13D, HRAS and NRAS are in context of their WT protein sequence background. Specifically, the SOS-catalyzed nucleotide exchange assay utilizes a preformed TR-FRET complex containing a specific biotinylated RAS protein (KRAS-WT, G12C/V/D, G13D, HRAS, NRAS; described above) with Bodipy-GDP, and Terbium-streptavidin. Compounds are preincubated with this complex for 60 minutes. Subsequently, recombinant human SOS protein and unlabeled GTP are added to initiate the exchange reaction. Small molecule inhibitors stabilize the Bodipy-GDP complex whereas the untreated protein rapidly exchanges Bodipy-GDP for unlabeled GTP resulting in reduced TR-FRET signal.
(§3) To assemble the preformed TR-FRET complexes, each biotinylated RAS protein is diluted to 2 μM in an EDTA Buffer (20 mM HEPES pH 7.5, 50 mM sodium chloride, 10 mM EDTA, and 0.01% Tween) and incubated at room temperature for one hour. This mixture is then further diluted to 90 nM in an Assay Buffer (20 mM HEPES pH 7.5, 150 mM sodium chloride, 10 mM magnesium chloride, and 0.005% Tween) containing 15 nM of Terbium-Streptavidin (Invitrogen, catalog #PV3577) and 900 nM of Bodipy-GDP (Invitrogen, catalog #G22360) and incubated at room temperature for six hours. It should be noted that this preformed TR-FRET complex for each of the RAS protein were made ahead of time, aliquoted and stored at −80° C. until the day of the experiment.
(§4) Each test compound (10 mM stock in DMSO) is diluted in DMSO to make a final-10-point, 3-fold dilution and is acoustically dispensed into a 384-well assay plate (Corning, catalog #3820) using an Echo 550 (Labcyte). Each well of the assay plate receives 3 μL of a specific 3×RAS preformed TR-FRET complex and 3 μL of Assay Buffer and is incubated at room temperature for 60 minutes (preincubation time). Each well then receives 3 μL of 3×recombinant human SOS protein and GTP (Sigma, G8877) in Assay Buffer and is incubated at room temperature for 30 minutes (G13D), 60 minutes (KRAS WT/G12C/D, H/NRAS) or 90 minutes for G12V. The final reaction in each well of 9 μL consists of 3 mM GTP, specific Ras and SOS proteins in the following concentrations: KRAS-G12C/SOS=3 nM/40 nM, KRAS-WT and G12D/SOS=1 nM/40 nM, KRAS-G12V/SOS=1.25 nM/160 nM. KRAS-G13D/SOS=1.25 nM/0 nM, HRAS and NRAS=1.25 nM/40 nM.
(§5) The time-resolved fluorescence resonance energy transfer (TR-FRET) signal is measured on an Envision (PerkinElmer) plate reader: Excitation filter=340 nm; emission 1=495 nm; emission2=520 nm; dichroic mirror=D400/D505; delay time=[…]. The signal of each well is determined as the ratio of the emission at 520 nm to that at 495 nm. Percent effect of each well is determined after normalization to control wells containing DMSO (no effect) or a saturating concentration of inhibitor (max effect). The apparent effect as a function of compound concentration is fit to a four-parameter logistic equation.

KRAS-G12D = KRAS-G12D (Homo sapiens, UniProt P01116, G12D); test: SOS-catalyzed nucleotide exchange assay (Procedure A, TR-FRET), KRAS-G12D; type: biochemical
KRAS-G12D, sequence (P01116 with tags, fused parts or gaps isoform P01116-2 G12D): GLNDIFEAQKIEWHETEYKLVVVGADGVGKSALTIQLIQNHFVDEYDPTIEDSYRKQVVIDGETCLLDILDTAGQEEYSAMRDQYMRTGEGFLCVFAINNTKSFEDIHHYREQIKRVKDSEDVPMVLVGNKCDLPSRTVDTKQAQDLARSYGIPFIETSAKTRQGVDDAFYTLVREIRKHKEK
Excerpt: as §1, §2, §3, §4, §5

KRAS-G12V = KRAS-G12V (Homo sapiens, UniProt P01116, G12V); test: SOS-catalyzed nucleotide exchange assay (Procedure A, TR-FRET), KRAS-G12V; type: biochemical
KRAS-G12V, sequence (P01116 with tags, fused parts or gaps isoform P01116-2 G12V): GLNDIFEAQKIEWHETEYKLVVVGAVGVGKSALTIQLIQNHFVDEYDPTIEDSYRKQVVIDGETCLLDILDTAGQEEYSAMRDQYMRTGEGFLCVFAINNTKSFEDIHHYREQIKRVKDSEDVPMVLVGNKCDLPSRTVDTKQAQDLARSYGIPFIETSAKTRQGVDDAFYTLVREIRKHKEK
Excerpt: as §1, §2, §3, §4, §5

AsPC-1 cells = test: Cellular phospho-ERK assay, AsPC-1 cells (homozygous KRAS-G12D); type: cell-based; details: Homo sapiens, read-out: AsPC1 pERK IC50
Experimental: Procedure for Cellular Phospho-ERK Assay in KRAS Wild Type and Mutant (G12D, G12V) Cell Lines
MKN-1 cells (JCRB JCRB0252) containing amplified wild-type KRAS, were cultured in growth medium that contains RPMI 1640-GlutaMAX™-I (ThermoFisher Scientific 61870) containing 10% heat inactivated fetal bovine serum (ThermoFisher Scientific 10091148), 1 mM sodium pyruvate and 10 mM HEPES. PANC08.13 cells (ATCC® CRL-2551™), containing homozygous KRAS-G12D activating mutation, were cultured in growth medium made of RPMI1640-GlutaMAX™-I (ThermoFisher Scientific 61870) containing 15% heat inactivated fetal bovine serum (ThermoFisher Scientific 10091148)). AsPC-1 cells (ATCC® CRL-1682™), containing homozygous KRAS-G12D activating mutation, were cultured in T150 flask in growth medium (RPMI medium 1640-GlutaMAX™-I (ThermoFisher Scientific 61870) containing 10% fetal bovine serum (ThermoFisher Scientific 10091148)). SW620 cells (ATCC® […]), containing homozygous KRAS-G12V activating mutation, were cultured in growth medium that contains RPMI 1640-GlutaMAX™-I (ThermoFisher Scientific 61870) containing 10% heat inactivated fetal bovine serum (ThermoFisher Scientific 10091148).
Cells for the assay were harvested in growth medium after TrypLE (ThermoFisher scientific 12604021) digestion and were seeded in a 384-well collagen coated cell culture plate (Corning 356702) at a density of 10,000-15,000 cells/20 μL/well, and incubated at 37° C., 5% CO2 overnight. The compound (with 10 mM stock concentration) dose-response titrations were prepared [30 μM final ERK detection assay concentration and 1:3 dilutions, 10-point dose response] and appropriate amounts (270 nL) of test compounds were dispensed in a 384-well intermediate plate using an Echo 550 liquid handler. 30 μL/well of RPMI medium 1640-GlutaMAX™—I was added to the intermediate plate and the contents of the intermediate plate (10 μL/well) were then transferred to the 384-well collagen coated cell culture plate, which was incubated at 37° C., 5% CO2 for 2 hours. After removal of medium from the collagen coated cell culture plate, cells were lysed in lysis buffer from Alpha SureFire® Ultra™ Multiplex p-ERK and total ERK assay kit (PerkinElmer MPSU-PTERK) containing Halt™ Protease and Phosphatase inhibitor cocktail (ThermoFisher Scientific 78446) at room temperature with constant shaking at 300 rpm for 30 minutes. The cell lysates were then transferred to an OptiPlate-384 plate (PerkinElmer 6005620), and the phosphorylation of ERK (p-ERK) and total ERK levels were detected by Alpha SureFire® Ultra™ Multiplex p-EEK kit and total ERK assay kit (PerkinElmer MPSU-PTERK) following the manufacturer's protocol. Assay plates were read on a En Vision Multimode Plate Reader (PerkinElmer), and the ratio of p-ERK vs. total ERK in each well was used as the final readout. Dose response curves were analyzed using a 4-parameter logistic model to calculate IC50 values using Spotfire software.

[1] = nucleotide exchange, read-out: KRAS WT GNE IC50
[2] = nucleotide exchange, read-out: KRAS G12D GNE IC50
[3] = nucleotide exchange, read-out: KRAS G12V GNE IC50
[4] = ASPC1, 2 h, 2 hours compound incubation

KRAS-WT, sequence (P01116 with tags, fused parts or gaps isoform P01116-2): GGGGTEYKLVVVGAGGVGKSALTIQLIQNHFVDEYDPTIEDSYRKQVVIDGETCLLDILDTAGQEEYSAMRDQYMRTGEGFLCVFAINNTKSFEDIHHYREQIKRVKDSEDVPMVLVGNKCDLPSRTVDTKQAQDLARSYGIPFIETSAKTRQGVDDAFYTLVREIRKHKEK

| SMILES | IC50 (KRAS-WT; [1]) | IC50 (KRAS-G12D; [2]) | IC50 (KRAS-G12V; [3]) | IC50 (AsPC-1 cells; ASPC1, 2 h, KRAS-G12D, 2 hours) | IC50 (AsPC-1 cells; [4]) | IC50 (KRAS-WT; KRAS WT GNE IC50, nucleotide exchange) | IC50 (KRAS-G12D; KRAS G12D GNE IC50, nucleotide exchange) | IC50 (KRAS-G12V; KRAS G12V GNE IC50, nucleotide exchange) | IC50 (AsPC-1 cells; ASPC1, 2 hours compound incubation) |
| --- | --- | --- | --- | --- | --- | --- | --- | --- | --- |
| CN1CCC[C@@H]1COc1nc(N2CCOC[C@@](C)(O)C2)c2c(n1)sc1c(-c3c(C4CC4)c(C(F)(F)F)cc4[nH]ncc34)nccc12 [Ex-81, (6S)-4-(8-(5-cyclopropyl-6-(trifluoromethyl)-1H-indazol-4-yl)-2-(((R)-1-methylpyrrolidin-2-yl)methoxy)pyrido[4′,3′:4,5]thi-eno[2,3-d]pyrimidin-4-yl)-6-methyl-1,4-oxazepan-6-ol] | 164 nM | 85.6 nM | 86.2 nM | 1110 nM |  |  |  |  |  |
| C[C@@]1(O)COCCN(c2nc(OC[C@@]34CCCN3C[C@H](F)C4)nc3sc4c(-c5cccc6c5CC5CC65)nccc4c23)C1 (single isomer, unassigned) [Ex-119] | 662 nM | 230 nM | 157 nM | 2150 nM |  |  |  |  |  |
| C[C@@]1(O)COCCN(c2nc(OC[C@@]34CCCN3C[C@H](F)C4)nc3sc4c(-c5c(C6=CCC6)c(C(F)(F)F)cc6[nH]ncc56)nccc4c23)C1 [Ex-77, (6S)-4-(8-(5-(cyclobut-1-en-1-yl)-6-(trifluoromethyl)-1H-indazol-4-yl)-2-(((2R,7aS)-2-fluorotetrahydro-1H-pyrrolizin-7a(5H)-yl)methoxy)pyrido[4′,3′:4,5]thi-eno[2,3-d]pyrimidin-4-yl)-6-methyl-1,4-oxazepan-6-ol] | 61.8 nM | 15 nM | 20.8 nM | 175 nM |  |  |  |  |  |
| C=C1CN2C[C@@H](F)C[C@@]2(COc2nc(N3CCOC[C@@](C)(O)C3)c3c(n2)sc2c(-c4c(C5CC5)c(Cl)cc5[nH]ncc45)nccc23)C1 [Ex-222, (6S)-4-(8-(6-chloro-5-cyclopropyl-1H-indazol-4-yl)-2-(((2S,7aR)-2-fluoro-6-methylenetetra-hydro-1H-pyrrol-izin-7a(5H)-yl)methoxy)pyrido [4′,3′:4,5]thieno[2,3-d]pyrimidin-4-yl)-6-methyl-1,4-oxaze-pan-6-ol] | 104 nM | 29.3 nM | 46 nM |  | 246 nM |  |  |  |  |
| Cc1cc2[nH]ncc2c(-c2nccc3c2sc2nc(OC[C@@]45CCCN4C[C@H](F)C5)nc(N4CCCC5(CC(=O)N5)C4)c23)c1C(F)(F)F (stereo partly drawn) [Ex-195, 6-(2-(((2R,7aS)-2-fluoro-tetrahydro-1H-pyrrolizin-7a(5H)-yl)methoxy)-8-(6-methyl-5-(trifluorometh-yl)-1H-indazol-4-yl)pyrido [4′,3′:4,5]thieno[2,3-d]pyrimidin-4-yl)-1,6-diaza-spiro[3.5]nonan-2-one] | 251 nM | 76.7 nM | 77.9 nM |  | 7560 nM |  |  |  |  |
| C[C@@]1(O)COCCN(c2nc(OC[C@]3(CN4C[C@H]5C[C@@H]4CO5)CC3(F)F)nc3sc4c(-c5c(C6(F)CC6)c(Cl)cc6[nH]ncc56)nccc4c23)C1 [Ex-257, (6S)-4-(2-(((R)-1-(((1R,4R)-2-oxa-5-azabicyclo[2.2.1]heptan-5-yl)methyl)-2,2-difluorocyclopropyl)methoxy)-8-(6-chloro-5-(1-fluorocyclopropyl)-1H-indazol-4-yl)pyrido[4′,3′:4,5]thieno[2,3-d]pyrimidin-4-yl)-6-methyl-1,4-oxazepan-6-ol] | 42.5 nM | 4.42 nM | 28.7 nM |  | 144 nM |  |  |  |  |
| C[C@@]1(O)COCCN(c2nc(OC[C@@]34CCCN3C[C@H](F)C4)nc3sc4c(-c5c(C(F)(F)F)c(C(F)F)cc6[nH]ncc56)nccc4c23)C1 [Ex-155, (6S)-4-(8-(6-(difluoromethyl)-5-(trifluoromethyl)-1H-indazol-4-yl)-2-(((2R,7aS)-2-fluorotetrahydro-1H-pyrrolizin-7a(5H)-yl)methoxy)pyrido[4′,3′:4,5]thieno[2,3-d]pyrimidin-4-yl)-6-methyl-1,4-oxazepan-6-ol] | 350 nM | 158 nM | 211 nM |  | 927 nM |  |  |  |  |
| Cn1ccc2cc3[nH]ncc3c(-c3nccc4c3sc3nc(OC[C@@]56CCCN5C[C@H](F)C6)nc(N5CCOC[C@@](C)(O)C5)c34)c21 [Ex-46] | 166 nM | 72.4 nM | 157 nM | 934 nM |  |  |  |  |  |
| C[C@@]1(O)COCCN(c2nc(OC[C@@]34CCCN3C[C@H](F)C4)nc3sc4c(-c5c6cc(F)ccc6cc6[nH]ncc56)nccc4c23)C1 [Ex-172, (6S)-4-(8-(6-fluoro-1H-benzo[f]indazol-4-yl)-2-(((2R,7aS)-2-fluorotetrahydro-1H-pyrrolizin-7a(5H)-yl)-methoxy)pyrido[4′,3′: 4,5]thieno[2,3-d]pyr-imidin-4-yl)-6-methyl-1,4-oxazepam-6-ol] |  |  |  |  |  | 72.4 nM | 34.1 nM | 49.2 nM | 252 nM |
| COCc1cc2[nH]ncc2c(-c2nccc3c2sc2nc(OC[C@@]45CCCN4C[C@H](F)C5)nc(N4CCOC[C@@](C)(O)C4)c23)c1C1CC1 [Ex-50, (6S)-4-(8-(5-cyclopropyl-6-(methoxymethyl)-1H-indazol-4-yl)-2-(((2R,7aS)-2-fluorotetrahydro-1H-pyrrolizin-7a(5H)-yl)methoxy)pyrido[4′,3′:4,5]thi-eno[2,3-d]pyrimidin-4-yl)-6-methyl-1,4-oxazepan-6-ol] | 326 nM | 243 nM | 291 nM | 3960 nM |  |  |  |  |  |
